This is an account of results in patent publication US12060588B2, “Methods of editing DNA methylation” (Whitehead Institute for Biomedical Research, priority 2016, dated 2024).

What all share (format): cell-based, mouse
Assay [1] has as its system off-target binding sites at Vac14, Tenm4, Vrk1 and Gm42619 loci. The assay can be described thus: Bisulfite sequencing of off-target binding sites.
In assay [2] the test system is BDNF promoter IV. The experiment in a line: Tet-assisted bisulfite sequencing (TAB-seq) of 5-hmC in BDNF promoter IV. The conditions noted are these: with 4 BDNF gRNAs; 40 and 60 hours post infection. How it is done: FIGS. 11A-11L depict targeted demethylation of BDNF promoter IV by dCas9-Tet1 in neurons. […] PAM for each gRNA is highlighted by a red box. […] Note that cultured neurons were treated with AraC on DIV2 to halt cell division in glial cells and neural progenitors. […] FIG. 11C provides EDU labeling analysis for the mouse primary neurons over the course of KCl treatment for 24 hrs. Note that extremely few EDU positive cells were observed. Stained in red for EDU, green for MAP2 and DAPI for nuclei. Scale bar: 500 um. FIG. 11D Upper panel: provides quantification of neuronal density over the course of KCl treatment. The post-mitotic neuron density remains steadily around 4.5×10^4/cm2 over time. Bars represent mean±SD of three experimental replicates. Lower panel: provides quantification of the EDU positive cells over the course of KCl treatment. Less than 2% of the cells are EDU-positive over 24 hrs. Bars represent mean±SD of three experimental replicates. FIG. 11E provides confocal micrographs of BDNF induction by ectopic expression of dCas9-Tet1 and a set of 4 gRNAs targeting BDNF promoter IV. Stained in green for BDNF, magenta for MAP2, red for Cherry and blue for DAPI. […]
Because post-mitotic neurons were used for these experiments, loss of methylation was likely due to active demethylation. […] Similarly, 5-hmC was also detected after KCl treatment (FIG. 11I). […]

For assay [3], the system named is MyoD distal enhancer (DMR-5) / MyoD expression. The assay can be described thus: MyoD expression in C3H10T1/2 cells (RT-qPCR). (Quantitative PCR measures a nucleic acid by following its amplification.)

Take “dCas9-Tet1: catalytically inactive Cas9 (dCas9) fused through NLS to the Tet1 catalytic domain, SEQ ID NO: 159; lentivirally expressed with gRNAs”: the “change in methylation level at second and third strongest (off-target) binding sites” value in assay [1] is listed as “only marginal change in methylation level”. Also, the “5-hmC level in BDNF promoter IV” value in assay [2] is “detected 40-hour post infection with dCas9-Tet1 and gRNA lentiviruses and diminished after 60 hours”. Further, the “induction of MyoD expression” value in assay [3] (MyoD DMR-5 gRNAs combined with 5-Aza treatment (48-hour)) is “higher induction of MyoD”; in assay [3] (with 4 gRNAs targeting DMR-5, C3H10T1/2 cells, 2 days, Cherry positive sorted), 3 fold.
